Source: BigSolDB 2.1

O=C(O)c1ccccc1Nc1ccccc1
solubility (mole fraction)
Settings | in ethanol | in methanol | in tert-butanol
283.15 K | 0.0101 | 0.00519 | –
285.65 K | 0.0107 | 0.00556 | –
288.15 K | 0.0112 | 0.00606 | –
290.65 K | 0.0112 | 0.00653 | –
293.15 K | 0.0123 | 0.00701 | –
295.65 K | 0.0131 | 0.0073 | –
298.15 K | 0.0136 | 0.00796 | 0.0189
300.65 K | 0.0144 | 0.00837 | 0.02
303.15 K | 0.0154 | 0.00883 | 0.0225
305.65 K | 0.0163 | 0.00916 | 0.0256
308.15 K | 0.0175 | 0.00971 | 0.0279
310.65 K | 0.0187 | 0.0103 | 0.0298
313.15 K | 0.02 | 0.0117 | 0.0319
315.65 K | 0.0221 | 0.0134 | 0.0353
318.15 K | 0.0242 | 0.0156 | 0.0389
